Columns and labels:
Type in all cases: in vivo, mouse
IGFBP-2−/− mice [1] = assay: Body composition (fat and lean mass) by EchoMRI at weeks 0 and 12
Procedure: (§1) Body fat and lean muscle mass was measured at weeks 0 and 12 of treatment by magnetic resonance imaging analysis (EchoMRI-100, Echo Medical Systems, Houston, Tex.), a technique that measures fat mass and lean mass in unanesthetized animals (Kelly S A, et. al., 2010). After completion of 12 weeks of treatment, the mice were sacrificed. Blood was collected by cardiac puncture and allowed to sit for 4 hours before centrifuging at 3500 rpm×15 min. The serum was aspirated and stored at −20° C. until analysis. Abdominal inguinal and visceral fat pads were carefully dissected from each animal according to defined anatomical landmarks. All subcutaneous fat between the lower part of the rib cage and the upper thigh was considered abdominal subcutaneous inguinal fat, whereas all fat found along the mesentery starting at the lesser curvature of the stomach and ending at the sigmoid colon was considered visceral fat. Fat depots were blotted dry prior to weighing. The right inguinal fat pad was dissected separately and the triglyceride content of this tissue was determined by a colorimetric analysis (Pointe Scientific, Canton, Mich.), as previously described (Dann H, Kimura S 1992). Serum adiponectin and leptin were measured by ELISA following manufacturer's instructions (Millipore, Billerica, Mass.).
(§2) Body composition and serum adipokine measurement. Body fat and lean mass were measured at weeks 0 and 12 of treatment by magnetic resonance imaging analysis (EchoMRI-100, Echo Medical Systems, Houston, Tex.), using unanesthetized animals. After 12 weeks of treatment, the mice were sacrificed and blood was collected by cardiac puncture and centrifuged at 3500 rpm×15 min. The serum was stored at −20° C. Abdominal inguinal and visceral fat pads were dissected from each animal according to defined anatomical landmarks. Subcutaneous fat between the rib cage and the upper thigh was termed subcutaneous inguinal fat, whereas all fat from the lesser curvature of the stomach to the sigmoid colon was termed visceral fat. Fat depots were blotted dry prior to weighing. The right inguinal fat pad was dissected separately and the triglyceride content of this tissue was determined by a calorimetric analysis (Pointe Scientific, Canton, Mich. Serum adiponectin and leptin were measured by ELISA following manufacturer's instructions (Millipore, Billerica, Mass.).

IGFBP-2−/− mice [2] = assay: Adipocyte area measurement in peri-gonadal adipose tissue; conditions: after 12 weeks
Procedure: Adipocyte area measurement. Samples of peri-gonadal adipose tissue were fixed in 10% formalin and embedded in paraffin. Multiple sections were obtained from each sample and stained with hematoxylin and eosin. Digital images of each section were acquired using an Olympus BX61 microscope and cell areas were traced manually for at least 200 cells per section by an investigator blinded to the sample identity, using Image J software (1ASS). Four sections from each adipose depot were analyzed to derive the mean cell area per mouse 6 mice per group).

IGFBP-2−/− mice [3] = assay: Serum adiponectin and leptin by ELISA; conditions: after 12 weeks
Procedure: as §1, §2

IGFBP-2−/− mice [4] = assay: Inguinal and visceral fat pad, liver and heart weights at sacrifice; conditions: after 12 weeks; for Inguinal fat / Visceral fat: pegylated peptide 50 μg IP 3 times/week, mean±SE
Procedure: as §1, §2

IGFBP-2−/− mice [5] = assay: Body weight gain and food intake, 12 weeks of peptide treatment; conditions: pegylated peptide 50 μg IP 3 times/week; for body weight gain (in words): HBD peptides after 8 weeks vs control peptide, control peptide over 12 weeks vs wild type
Procedure: Generation of the B6.129-Igfbp2^tmlJep, referred to as Igfbp2^−/− mice, has been described previously (DeMambro et al., 2008; Danno et al., 1992). The mice were backcrossed onto C57BL/6J background for at least 10 generations. Mating pairs were provided from Maine Medical Center Research Institute (Scarborough, Me.). Igfbp2^+/+ mice were C57BL/6J controls. All in vivo and ex vivo experimental studies were performed using male mice. The animal study protocol was reviewed and approved by the Institutional Animal Care and Use Committee of University of North Carolina at Chapel Hill. Mice were assigned to one of four treatment groups. 1) Peg HBD1 peptide: Igfbp2^−/− mice were administered 50 μg of the pegylated HBD1 peptide in 0.1 mL PBS (n=9); 2) Peg HBD2 peptide: Igfbp2^−/− mice were administered 50 μg of the pegylated HBD2 peptide in 0.1 mL PBS (n=10); 3) control peptide: Igfbp2^−/− mice were given 50 μg of the HBD1 control peptide in 0.1 mL PBS (n=18); 4) WT: Igfbp2^+/+ mice were given 0.1 mL of PBS (n=9). All injections were administered IP 3 times weekly from 10-22 weeks of age. All mice were provided with free access to 2018 Teklad global rodent diet (Harlan, Dublin, Va.), containing 18.6% protein, 6.2% fat and 3.5% crude fiber. Food consumption and the weights of the mice were determined weekly.
To investigate the effect of IGFBP-2 HBDs on weight gain and fat mass in vivo, the peptides containing HBD sequences were administered to IGFBP-2−/− mice. […] To extend the half life of the peptides and increase their resistance to proteolysis in vivo, all three peptides were pegylated. It has been shown that 50 μg of HBD1 peptide administered via intraperitoneal (IP) injection 5 times per week for 3 weeks was effective in promoting bone growth in IGFBP-2^−/− male mice (17). […] In the second phase the effects of the HBD2 and control peptides were determined. […] To exclude the possibility that differences in weight gain were caused by different food intake, food consumption was measured weekly.
Mice. […] Food consumption and the weights of the mice were determined weekly. […]

[6] = weeks 0 to 12, pegylated peptide 50 μg IP 3 times/week
[7] = weeks 0 to 12, pegylated peptide 50 μg IP 3 times/week, mean±SE

Question: KHGLYNLKQCKMSLNGQR [HBD2 peptide] was tested. Which “reduction in body fat mass gain (fat as percentage of body weight) compared to control peptide” value (IGFBP-2−/− mice [1]; 12 weeks, pegylated peptide 50 μg IP 3 times/week) did it give?
Answer: 48±9%

Question: What about the “lean mass change expressed as percentage of body weight (relative reduction)” value (IGFBP-2−/− mice [1]; [6]) of the same sequence?
Answer: 2.1±0.8%

Question: And the Fat mass increase (IGFBP-2−/− mice [1]; [7])?
Answer: 0.58 ± 0.12 g

Question: What about the Lean mass increase (IGFBP-2−/− mice [1]; [7]) of the same sequence?
Answer: 3.10 ± 0.57 g

Question: What about the adipocyte size (IGFBP-2−/− mice [2]) of the same sequence?
Answer: 11967±716 pixels/cell

Question: And the “increase of serum leptin level compared to control peptide treated mice” value (IGFBP-2−/− mice [3])?
Answer: 57±9%

Question: And the “serum adiponectin level lower than in control peptide treated mice” value (IGFBP-2−/− mice [3])?
Answer: 36±4%

Question: What about the “serum adiponectin level reduction compared to HBD1 peptide treated mice” value (IGFBP-2−/− mice [3]) of the same sequence?
Answer: 24±5%

Question: And the “reduction of inguinal fat pad (percentage of body weight) compared to control peptide” value (IGFBP-2−/− mice [4])?
Answer: 32±7%

Question: What about the “reduction of visceral fat (percentage of body weight) compared to control peptide” value (IGFBP-2−/− mice [4]) of the same sequence?
Answer: 44±7%

Question: And the Inguinal fat (IGFBP-2−/− mice [4])?
Answer: 0.23 ± 0.02 g

Question: And the Visceral fat (IGFBP-2−/− mice [4])?
Answer: 0.25 ± 0.02 g

Question: And the “body weight gain (in words)” value (IGFBP-2−/− mice [5])?
Answer: gained significantly less weight

Question: What about the “weight gain compared to mice that received HBD1 peptide” value (IGFBP-2−/− mice [5]; after 10 weeks) of the same sequence?
Answer: significantly less

Question: With KHLSLEEPKKLRP [HBD1 peptide] as the sequence, how does the “inhibition of fat mass acquisition” value (IGFBP-2−/− mice [1]; 12 weeks) read?
Answer: 31%

Question: And the “lean mass change expressed as percentage of body weight (relative reduction)” value (IGFBP-2−/− mice [1]; [6])?
Answer: 4.1±1.1%

Question: What about the adipocyte size (IGFBP-2−/− mice [2]) of the same sequence?
Answer: 12406±748 pixels/cell

Question: And the “increase of serum leptin level compared to control peptide treated mice” value (IGFBP-2−/− mice [3])?
Answer: had no effect

Question: And the “reduction of inguinal fat pad (percentage of body weight) compared to control peptide” value (IGFBP-2−/− mice [4])?
Answer: had no effect

Question: What about the “reduction of visceral fat (percentage of body weight) compared to control peptide” value (IGFBP-2−/− mice [4]) of the same sequence?
Answer: 24±5%

Question: What about the Inguinal fat (IGFBP-2−/− mice [4]) of the same sequence?
Answer: had no effect

Question: And the Visceral fat (IGFBP-2−/− mice [4])?
Answer: 0.34 ± 0.01 g

Question: And the “body weight gain (in words)” value (IGFBP-2−/− mice [5])?
Answer: gained significantly less weight
